Consider seven compounds from the NIST ThermoML archive (doi:10.1021/je020107x).

Molecules are shown by their SMILES. ± gives the expanded uncertainty stated by the source.

The nature of this data set: refractive index (Na D-line) (dimensionless). The settings on record: 298.15 K; 101.33 kPa; Liquid; Standard Abbe refractometry.
In the case of `Clc1ccc(Cl)c(Cl)c1` [1,2,4-trichlorobenzene], the refractive index (usually the speed of light in vacuum divided by its phase velocity in the sample) was 1.522 ± 0.0005.
Under `Clc1ccccc1Cl` [1,2-dichlorobenzene] stands 1.5491 ± 0.0005; under `Clc1cccc(Cl)c1` [1,3-dichlorobenzene], 1.5432 ± 0.0005.
Next, `Clc1ccccc1` [chlorobenzene]: 1.5218 ± 0.0005; `CCCCCCCCCCCC` [dodecane]: 1.4275 ± 0.0005.
With `CCCCCCCCCCCCCCCC` [hexadecane], the refractive index was 1.4325 ± 0.0005.
Under `CCCCCC` [hexane] stands 1.3728 ± 0.0005.
